Measurements published in patent US4696930A, “N-(heteroarylalkyl)acylanilide derivatives as antiarrhythmic agents” (Hoffmann-La Roche Inc., priority 1985, dated 1987).
Read-outs that look alike come from different tables or passages of the source.

Assays:
Thromboxane Synthase = assay: Thromboxane synthase inhibition (Table III, enzyme source not stated); assay type: biochemical; conditions: platelet species not stated, read-out: Thromboxane Synthase Inh. IC50
Description: (§1) Rac.-2-amino-N-(2,6-dimethylphenyl)-N-[3-(3-pyridinyl)propyl]propanamide dihydrochloride was tested for its inhibitory effects on thromboxane A2 synthetase (washed rabbit platelet) activity in vitro.
(§2) Therefore, rac.-2-amino-N-(2,6-dimethylphenyl)-N-[3-(3-pyridinyl)propyl]propanamide dihydrochloride is useful in the treatment of ischemic heart disease.

[1] = test system: Platelet Activating Factor (PAF) induced aggregation of human platelet rich plasma; assay: Inhibition of platelet activating factor (PAF) induced platelet aggregation; assay type: cell-based; conditions: human PRP, PAF 1 μM, first phase response
Description: Human platelet rich plasma (PRP) and platelet poor plasma (PPP) are prepared from 0.38% sodium citrate treated blood. PRP is obtained by centrifugation at 180×g for 10 minutes and PPP by centrifuging the remaining red cell layer 1000×g for 10 minutes. Aggregation is determined by the turbidometric method of Born which was cited above, and monitored at 37° C. with a Payton dual channel module with stirring speed set at 900 rpm. PRP (0.45 ml) is added to a siliconized cuvette and prewarmed to 37° C. Zero and 100% light transmission are set with PRP and PPP, respectively. PAF (50 μl) is added to the stirring PRP one minute after the addition of 5 μl of the compound to be tested. PRP prepared from citrated human blood will aggregate when stirred in the presence of PAF giving a two phase response. The first phase is caused by PAF and the second phase is caused by the release of arachidonic acid. PAF is used at 1 μM and only the first phase response, about 30% aggregation, is evaluated. The first phase is resistant to indomethacin. 50% inhibition of the 1st phase PAF response is calculated from dose curves and represented as IC50 values. […] Activities of compounds of the invention in this test can be found in Table III below.

[2] = test system: Ouabain-induced ventricular arrhythmia; assay: Effectiveness against ouabain-induced ventricular arrhythmia in anesthetized dogs; assay type: in vivo, dog; conditions: for minimal effective dose: Canis lupus familiaris, iv; for minimal effective dose / No. of effective cases/No. of experiments: dog
Description: Ventricular arrhythmia in an anesthetized dog was induced by an intravenous administration of ouabain. An initial i.v. dose of 40 μg/kg was administered, then 20 μg/kg i.v. 30 minutes later and then additional 10 μg/kg i.v. every 15 minutes until ventricular arrhythmia developed. […] The test compound, which was rac.-2-amino-N-(2,6-dimethylphenyl)-N-[3-(3-pyridinyl)propyl]propanamide dihydrochloride, dissolved in saline solution, was injected into the femoral vein 10 min. after the development of the arrhythmia. The dose schedule for the test compound was 1, 3 and 10 mg/kg i.v. in this order at 15 minute intervals until the arrhythmia was reversed to sinus rhythm.
Effectiveness against Ouabain-induced
Ventricular Arrhythmia in Dogs
MED: Minimum effective dose was measured by successive injections of 1, 3
and 10 mg/kg into the femoral vein at 15 minuteintervals until
ouabaininduced arrhythmia was reversed to the sinus rhythm.

[3] = test system: Arachidonic Acid (AA) induced aggregation of human platelet rich plasma; assay: Inhibition of arachidonic acid (AA) induced platelet aggregation; assay type: cell-based; conditions: 2 min, human PRP, AA 0.3 to 1 mM
Description: Human platelet rich plasma (PRP) and platelet poor plasma (PPP) are prepared from 0.38% sodium citrate treated blood. PRP is obtained by centrifugation at 180×g for 10 minutes and PPP by centrifuging the remaining red cell layer 1000×g for 10 minutes. Aggregation is determined by the turbidometric method of Born G.V.R., Nature, 194, 927, (1962), and monitored at 37° C. with a Payton dual channel module with stirring speed set at 900 rpm. PRP (0.45 ml) is added to a siliconized cuvette and prewarmed to 37° C. Zero and 100% light transmission are set with PRP and PPP, respectively. AA (50 μl) is added to the stirring PRP one minute after the addition of 5 μl of the compound to be tested. A threshold dose (0.3 to 1 mM) of AA is chosen which causes maximum aggregation at about 2 minutes. […] Activities of compounds of the invention in this test can be found in Table III below.

[4] = target: T1, thromboxane A2 synthetase (Homo sapiens, UniProt P24557); assay: Thromboxane A2 synthetase inhibition, human platelets, PG H2 substrate; assay type: biochemical; conditions: PG H2 as the substrate, read-out: thromboxane A2 synthetase inhibition IC50 range
T1 construct: thromboxane A2 synthetase activity of human platelets; from tissue; host or cells: human platelets
T1 sequence (P24557 1-533): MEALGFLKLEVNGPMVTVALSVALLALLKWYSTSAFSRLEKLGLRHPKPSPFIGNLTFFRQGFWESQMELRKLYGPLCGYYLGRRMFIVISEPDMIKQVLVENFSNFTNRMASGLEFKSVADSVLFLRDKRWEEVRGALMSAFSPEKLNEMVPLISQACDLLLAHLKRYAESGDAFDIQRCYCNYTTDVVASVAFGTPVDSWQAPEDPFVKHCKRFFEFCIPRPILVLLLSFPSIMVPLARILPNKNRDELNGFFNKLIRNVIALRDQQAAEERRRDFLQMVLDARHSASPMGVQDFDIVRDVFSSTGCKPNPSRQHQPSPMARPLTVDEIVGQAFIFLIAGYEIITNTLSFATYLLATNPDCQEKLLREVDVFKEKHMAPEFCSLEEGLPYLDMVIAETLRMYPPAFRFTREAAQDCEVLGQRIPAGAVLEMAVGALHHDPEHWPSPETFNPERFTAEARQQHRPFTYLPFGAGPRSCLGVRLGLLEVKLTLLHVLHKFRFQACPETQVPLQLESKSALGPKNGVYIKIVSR
From the text: as §2

[5] = test system: collagen-induced rabbit platelet aggregation; assay: Ex vivo inhibition of collagen-induced rabbit platelet aggregation by plasma of orally treated rats; assay type: in vivo, rabbit platelets; plasma of treated rats; conditions: for collagen-induced platelet aggregation, % of control: 4 rats, 1 hour after dosing, collagen 3 μg/ml, control = 100%
Description: (4) Ex vivo experiments: Inhibition of rabbit platelet aggregation induced by collagen by the plasma of rats treated with oral rac.-2-amino-N-(2,6-dimethylphenyl)-N-[3-(3-pyridinyl)propyl]propanamide dihydrochloride
The antiplatelet aggregatory activity of rac.-2-amino-N-(2,6-dimethylphenyl)-N-[3-(3-pyridinyl) propyl]propanamide dihydrochloride was observed ex vivo in rats.
control. The control = 100% platelet aggregation.
An aliquot (125 μl) of the platelet free plasma of the rats which had
been orally treated with compound for 1 hour was added to the platelet
rich plasma (125 μl) of the rabbit. Collagen (3 μg/ml) induced
platelet aggregation was measured turbidimetrically.

[6] = test system: ventricular arrhythmias induced by 2-stage ligation of the coronary artery; assay: Ventricular arrhythmias induced by 2-stage ligation of the coronary artery (Harris dogs); assay type: in vivo, dog (mongrel); conditions: for incidence of ventricular premature contractions and conversion to sinus rhythm: n=5
Description: (2) Test for effectiveness against ventricular arrhythmias induced by 2-stage ligation of the coronary artery in dogs (Harris dogs)
Mongrel dogs weighing between 8-14 kg were anesthetized using 30 mg/kg i.v. of sodium pentobarbital. They were artificially ventilated with room air. After thoracotomy via the fourth left intercostal space, the pericardium was opened. The left anterior descending artery was dissected free for a few millimeters near the distal edge of the […] and ligated there in two stages being separated by an interval of 30 minutes. […] Electrograms were monitored continuously throughout the experiment and the number of ventricular and sinus beats (expressed per minute) was counted for 5 minutes every 15 or 30 minutes after p.o. administration of compound and the percentage of ventricular premature beats were calculated.

[7] = target: T2, thromboxane A2 synthetase (Oryctolagus cuniculus, UniProt G1TAZ9); assay: Thromboxane A2 synthetase inhibition, washed rabbit platelets, C^14-arachidonic acid substrate; assay type: biochemical; conditions: in vitro
T2 construct: Using washed rabbit platelets as the enzyme sources; from tissue; host or cells: washed rabbit platelets
T2 sequence (G1TAZ9 1-530): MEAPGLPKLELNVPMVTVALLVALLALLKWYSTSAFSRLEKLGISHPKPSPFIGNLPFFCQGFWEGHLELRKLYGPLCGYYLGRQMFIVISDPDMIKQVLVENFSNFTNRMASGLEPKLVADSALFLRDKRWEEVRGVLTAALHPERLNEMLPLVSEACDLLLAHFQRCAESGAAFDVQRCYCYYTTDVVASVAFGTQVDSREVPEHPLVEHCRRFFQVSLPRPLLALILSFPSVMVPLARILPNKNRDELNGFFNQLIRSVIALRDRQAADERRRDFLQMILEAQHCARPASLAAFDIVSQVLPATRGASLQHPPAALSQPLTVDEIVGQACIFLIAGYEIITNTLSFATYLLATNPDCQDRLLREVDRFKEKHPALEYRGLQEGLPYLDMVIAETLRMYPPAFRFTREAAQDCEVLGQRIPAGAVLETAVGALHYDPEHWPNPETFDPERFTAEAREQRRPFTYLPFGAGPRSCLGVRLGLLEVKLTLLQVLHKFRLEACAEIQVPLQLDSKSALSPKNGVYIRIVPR
Description: as §1, §2

[8] = read-out: Ouabain Induced Arrhythmias MED, Table III

SMILES | IC50 (Thromboxane Synthase) [µM] | IC50 [1] [µM] | IC50 [3] [µM] | minimal effective dose [2, 8] [mg/kg] | other results
Cc1cccc(C)c1N(CCCCCCc1cccnc1)C(=O)C(C)N (centres unmarked) | 10 to 100 | – | – | 8.3 ± 1.8 | –
Cc1cccc(C)c1N(CCCc1cccnc1)C(=O)Cn1ccnc1 | 0.1 to 1 | 1 | > 10 | – | Ouabain Induced Arrhythmias: number dead/number tested ([2]; dead at 1 mg/kg IV): 1/2
Cc1cccc(C)c1N(CCCc1cccnc1)C(=O)Cn1ccnc1C | 0.1 to 1 | > 10 | > 10 | > 10 | –
Cc1cccc(C)c1N(CCn1ccnc1)C(=O)CCCc1cccnc1 | 0.1 to 1 | 0.5 | 0.5 | – | Ouabain Induced Arrhythmias: number dead/number tested ([2]; dead at 3 mg/kg IV): 1/2
CC(N)C(=O)N(CCCc1cccnc1)c1ccccc1 (racemic) [H H H, rac.-2-amino-N-phenyl-N-[3-(3-pyridinyl)propyl]propanamide] | 10 to 100 | – | – | > 10 | –
Cc1cccc(C)c1N(CCCc1cccnc1)C(=O)C(C)N.Cl.Cl (racemic) [rac.-2-amino-N-(2,6-dimethylphenyl)-N-[3-(3-pyridinyl)propyl]propanamide dihydrochloride] | 10 to 100 | 20 | 5 | 4.4 ± 1.4 | IC50 [4]: 1 to 10 µM; collagen-induced platelet aggregation, % of control ([5]; 50 mg/kg p.o.): 77.1 ± 11.7 % of control; collagen-induced platelet aggregation, % of control ([5]; 100 mg/kg p.o., p < 0.01): 64.8 ± 6.2 % of control; collagen-induced platelet aggregation, % of control ([5]; 200 mg/kg p.o., p < 0.01): 40.3 ± 14.0 % of control; ED50 ([5]; Rattus norvegicus, Platelet, po, plasma of rats treated orally for 1 hour, read-out: ED50, inhibition of collagen-induced rabbit platelet aggregation (95% confidence limit)): 123 mg/kg; ED50, inhibition of collagen-induced rabbit platelet aggregation (95% confidence limit) ([5]; plasma of rats treated orally for 1 hour, dihydrochloride, 60 min): 123 (85-274) mg/kg p.o.; onset of the antiarrhythmic effects ([6]; 30 mg/kg p.o.): approximately 1 hour; time of maximum effect after dosing ([6]; 30 mg/kg p.o.): 5 h; percentage of ventricular premature beats at maximum effect ([6]; 30 mg/kg p.o., 5 hours after dosing, from 94±1.5%, p<0.01): 13±7.9%; incidence of ventricular premature contractions and conversion to sinus rhythm ([6]; 30 mg/kg p.o.): dramatically decreased the incidence of ventricular premature contractions (VPCs) and converted ventricular arrhythmias to sinus rhythm; onset of the antiarrhythmic effects ([6]; 100 mg/kg p.o.): ~2 h; time of maximum effect after dosing ([6]; 100 mg/kg p.o.): 2.5 h; percentage of ventricular premature beats at maximum effect ([6]; 100 mg/kg p.o., 2.5 hours after dosing, from 94±0.5%, p<0.05): 10±9.5%; incidence of ventricular premature contractions and conversion to sinus rhythm ([6]; 100 mg/kg p.o.): dramatically decreased the incidence of ventricular premature contractions (VPCs) and converted ventricular arrhythmias to sinus rhythm; duration of the antiarrhythmic effects after dosing ([6]; 30 and 100 mg/kg p.o.): at least 6 hours; IC50 [7]: 38 µM; No. of effective cases/No. of experiments ([2]; 1 mg/kg i.v.): 0/4; No. of effective cases/No. of experiments ([2]; 3 mg/kg i.v.): 4/5; No. of effective cases/No. of experiments ([2]; 10 mg/kg i.v.): 1/1; minimal effective dose ([2]; 0.25 h, successive injections of 1, 3 and 10 mg/kg at 15 minute intervals, read-out: MED (minimum effective dose), Table I): 4.4 ± 1.4 mg/kg

Second part, led by results:

IC50 (Thromboxane Synthase) [µM] | IC50 [1] [µM] | IC50 [3] [µM] | SMILES | minimal effective dose [2, 8] [mg/kg] | other results
10 to 100 | > 10 | > 10 | Cc1cccc(C)c1N(CCCCc1cccnc1)C(=O)C(C)N (centres unmarked) | – | Ouabain Induced Arrhythmias: number converted/number tested ([2]; converted at 3 mg/kg IV): 1/3
~10 | > 10 | > 10 | Cc1cccc(C)c1N(CCCCn1ccnc1)C(=O)C(C)N (centres unmarked) | > 10 | –
10 to 100 | – | – | Cc1ccc(N(CCCc2cccnc2)C(=O)C(C)N)cc1 (racemic) [H H CH3, rac.-2-amino-N-(4-methylphenyl)-N-[3-(3-pyridinyl)propyl]propanamide] | > 10 | –
– | > 100 | > 100 | Cc1cccc(C)c1NC(=O)C(C)N (centres unmarked) [reference compound] | 15.5 ± 3.4 | –
